Read-outs that look alike come from different tables or passages of the source.
Assays:
[1] = system: adult mongrel dogs; test: Renal vasodilating activity in anesthetized dogs; assay type: in vivo, dog (adult mongrel); conditions: Canis lupus familiaris; for change in vivo at 0.14 mg/kg: 0.14 mg/kg intravenous; for change in vivo at 6.2 mg/kg: 6.2 mg/kg intravenous; for change in vivo at 1.2 mg/kg: 1.2 mg/kg intravenous; for change in vivo at 0.04 mg/kg: 0.04 mg/kg intravenous; for change in vivo at 0.34 mg/kg: 0.34 mg/kg intravenous
Experimental: Goldberg et al, J. Pharmacol. Exp. Ther., 163, 188 (1968), performed an investigation of the structural requirements for dopamine-like renal vasodilation of phenethylamines and apmorphine. The following procedure is a variation of the assay described in that report.
Adult mongrel dogs were anesthetized and surgically prepared for electromagnetic measurement of renal artery blood flow. A carotid artery was cannulated for measuring arterial blood pressure, and drugs were administered intravenously or intraarterially (via the renal artery). Heart rate was monitored with a cardiotachometer. Renal vascular resistance was calculated as the ratio of mean arterial blood pressure/renal artery blood flow. Dopamine was infused intravenously at […] for ten minutes (at an infusion rate of about 1 ml/min) to determine responsiveness of each dog to renal dopamine receptor stimulation. Cumulative dose-response data were obtained by infusing a compound of this invention at progressively increasing (usually three-fold) infusion rates, esch dose being infused for five minutes. The maximum percent increase from pre-drug control in renal artery blood flow (or a decrease in renal vascular resistance) was determined for each infusion dose.
RBF values are percent increase in renal blood flow. RVR values are percent increase in renal vascular resistance. MABP and HR are increases in mean arterial blood pressure and heart rate, respectively, relative to controls.

[2] = system: adult mongrel dogs; test: Acute in vivo cardiotonic activity in anesthetized dogs; set-up: species or system dog (adult mongrel); conditions: Canis lupus familiaris, relative to controls; for change in vivo at 0.375 mg/kg: 0.375 mg/kg intravenous; for change in vivo at 0.12 mg/kg: 0.12 mg/kg intravenous; for change in vivo at 0.875 mg/kg: 0.875 mg/kg intravenous; for change in vivo at 0.125 mg/kg: 0.125 mg/kg intravenous; for change in vivo at 1.875 mg/kg: 1.875 mg/kg intravenous
Experimental: The acute in vivo cardiotonic activity of compounds prepared according to the present invention was determined according to a modification of the procedure described by Alousi et al., Circ. Res., 45, 666 (1979).
In particular, adult mongrel dogs were anesthetized with sodium pentobarbital and were artificially respired. Arterial pressure was monitored via a femoral artery, and the pulse pressure was used to trigger a cardiotachometer for heart rate. Left ventricular pressure was determined with a Millar catheter, and dP/dt (the change in ventricular pressure with time) was derived. Cardiac output was determined by measuring ascending aortic blood flow with an electromagnetic flow probe, and myocardial contractile force was measured with a Walton Brodie strain gauge sutured to the right ventricle. Lead II EKG was also recorded.
A standard dose (10 μ/kg/min) of dopamine was administered to assess myocardial responsiveness.
Compounds of the invention were administered by intravenous infusion or bolus oral administration, and the effects on cardiovascular parameters were determined.
Dose related effects on the test compound on blood pressure (BP), heart rate (HR), maximum change in left ventricular pressure with time (dP/dt max), % change in cardiac force (CF) and the increase in mean arterial blood pressure relative to controls (MABP) were compared to pretreatment control values, expressed as a % change and rated for activity. Statistical evaluations were made using the appropriate parametric test against controls.

[3] = relative to controls, read-out: MABP, mean arterial blood pressure
[4] = relative to controls, read-out: RBF, renal blood flow
[5] = relative to controls, read-out: RVR, renal vascular resistance
[6] = read-out: CF, percent change in cardiac force
[7] = read-out: HR, percent change in heart rate
[8] = read-out: MABP, mean arterial blood pressure
[9] = read-out: dP/dt, maximum change left ventricular pressure with time
[10] = relative to controls, read-out: HR, percent change in heart rate

In the case of `CCCCOc1cc2c(C)nc(O)c([N+](=O)[O-])c2cc1OC` [BI], the change in vivo at 0.14 mg/kg [1, 3] is reported as -8%, the change in vivo at 0.14 mg/kg [1, 4] is reported as 16% and the change in vivo at 0.14 mg/kg [1, 5] is reported as -18%. For the same compound, the change in vivo at 0.375 mg/kg [2, 6] was 118%, the change in vivo at 0.375 mg/kg [2, 7] was 30% and the change in vivo at 0.375 mg/kg [2, 8] was -35%. It also gave a change in vivo at 0.375 mg/kg [2, 9] of 8%.
In the case of `CCOc1cc2c([N+](=O)[O-])c(O)nc(C)c2cc1OC` [BAN], the change in vivo at 6.2 mg/kg [1, 10] is reported as -5%, the change in vivo at 6.2 mg/kg [1, 3] is reported as 1% and the change in vivo at 6.2 mg/kg [1, 4] is reported as 61%. It also gave a change in vivo at 6.2 mg/kg [1, 5] of -37%, a change in vivo at 0.12 mg/kg [2, 6] of 49% and a change in vivo at 0.12 mg/kg [2, 7] of 4%. For the same compound, the change in vivo at 0.12 mg/kg [2, 8] was -18% and the change in vivo at 0.12 mg/kg [2, 9] was 12%.
With `COc1cc2c(C)nc(O)c(N)c2cc1OC` [Compound BBQ, 4-Amino-3-hydroxy-6,7-dimethoxy-1-methylisoquinoline] the change in vivo at 1.2 mg/kg [1, 10] was 4%, the change in vivo at 1.2 mg/kg [1, 3] was 6% and the change in vivo at 1.2 mg/kg [1, 4] was 22%. It also gave a change in vivo at 1.2 mg/kg [1, 5] of -12%, a change in vivo at 0.875 mg/kg [2, 6] of 99% and a change in vivo at 0.875 mg/kg [2, 7] of 7%. The change in vivo at 0.875 mg/kg [2, 8] was -5% and the change in vivo at 0.875 mg/kg [2, 9] was 106%.
`CCOc1cc2c(C)nc(O)c([N+](=O)[O-])c2cc1OC` [BH] showed a change in vivo at 0.04 mg/kg [1, 10] of 19%, a change in vivo at 0.04 mg/kg [1, 3] of -10% and a change in vivo at 0.04 mg/kg [1, 4] of 25%. It also gave a change in vivo at 0.04 mg/kg [1, 5] of -28%, a change in vivo at 0.125 mg/kg [2, 6] of 134% and a change in vivo at 0.125 mg/kg [2, 7] of 18%. The change in vivo at 0.125 mg/kg [2, 8] was -24% and the change in vivo at 0.125 mg/kg [2, 9] was 74%.
For `CCOc1cc2c(C)nc(O)c(NC(C)=O)c2cc1OC` [BJ], the change in vivo at 6.34 mg/kg ([1]; iv, read-out: HR, percent change in heart rate) was -16%, the change in vivo at 6.34 mg/kg ([1]; 6.34 mg/kg intravenous, relative to controls, read-out: MABP, mean arterial blood pressure) was -4% and the change in vivo at 6.34 mg/kg ([1]; 6.34 mg/kg intravenous, relative to controls, read-out: RBF, renal blood flow) was 18%. For the same compound, the change in vivo at 6.34 mg/kg ([1]; 6.34 mg/kg intravenous, relative to controls, read-out: RVR, renal vascular resistance) was -19%, the change in vivo at 1.875 mg/kg [2, 6] was 21% and the change in vivo at 1.875 mg/kg [2, 7] was -3%. It also gave a change in vivo at 1.875 mg/kg [2, 8] of 1% and a change in vivo at 1.875 mg/kg [2, 9] of 8%.
`COc1cc2c(-c3ccccc3)nc(O)c([N+](=O)[O-])c2cc1OC` [BL] was tested, and the change in vivo at 0.34 mg/kg [1, 10] was 29%, the change in vivo at 0.34 mg/kg [1, 3] was 6% and the change in vivo at 0.34 mg/kg [1, 4] was 13%. For the same compound, the change in vivo at 0.34 mg/kg [1, 5] was -5%, the change in vivo at 1.875 mg/kg [2, 6] was 10% and the change in vivo at 1.875 mg/kg [2, 7] was -29%. It also gave a change in vivo at 1.875 mg/kg [2, 8] of -15% and a change in vivo at 1.875 mg/kg [2, 9] of 11%.
Work on `O=[N+]([O-])c1c(O)ncc2cc3c(cc12)OCO3` [Compound BC] yielded a change in vivo at 1.2 mg/kg [1, 10] of -6%, a change in vivo at 1.2 mg/kg [1, 3] of -14% and a change in vivo at 1.2 mg/kg [1, 4] of 20%. For the same compound, the change in vivo at 1.2 mg/kg [1, 5] was -28%, the change in vivo at 1.875 mg/kg [2, 6] was 16% and the change in vivo at 1.875 mg/kg [2, 7] was 0%. For the same compound, the change in vivo at 1.875 mg/kg [2, 8] was -7.5% and the change in vivo at 1.875 mg/kg [2, 9] was 22%.
Work on `COc1cc2c([N+](=O)[O-])c(O)nc(C)c2c(OC)c1OC` [BE] yielded a change in vivo at 1.2 mg/kg [1, 10] of 32%, a change in vivo at 1.2 mg/kg [1, 3] of -26% and a change in vivo at 1.2 mg/kg [1, 4] of 60%. The change in vivo at 1.2 mg/kg [1, 5] was -52%, the change in vivo at 0.875 mg/kg [2, 6] was 84% and the change in vivo at 0.875 mg/kg [2, 7] was 18%. It also gave a change in vivo at 0.875 mg/kg [2, 8] of -22% and a change in vivo at 0.875 mg/kg [2, 9] of 38%.
With `Cc1nc(O)c([N+](=O)[O-])c2cc3c(cc12)OCO3` [Compound BB] the change in vivo at 6.2 mg/kg [1, 10] was 90%, the change in vivo at 6.2 mg/kg [1, 3] was -16% and the change in vivo at 6.2 mg/kg [1, 4] was 19%. For the same compound, the change in vivo at 6.2 mg/kg [1, 5] was -30%, the change in vivo at 1.875 mg/kg [2, 6] was 28% and the change in vivo at 1.875 mg/kg [2, 7] was -17%. For the same compound, the change in vivo at 1.875 mg/kg [2, 8] was -8% and the change in vivo at 1.875 mg/kg [2, 9] was -1%.

From US4714705A, “4-nitrogen substituted isoquinolinol compounds having cardiotonic, phosphodiesterase fraction III inhibiting properties and/or renal vasodilating properties” (Ortho Pharmaceutical Corporation, priority 1986, dated 1987)
